Measured values: article PMC12304293, “Combatting virulent gut bacteria by inhibiting the biosynthesis of a two-component lanthipeptide toxin” (Nature Communications, 2025)
Several values for one entry are separate records, joined by “and”; a condition that tells them apart may be missing. Equal entries are not always repeated. Non-standard residues stand in square brackets, D forms with d. Residues, ends and D or L forms follow the SMILES beside them. *: point of attachment. boroGlu = O=C(O)CC[C@H](N*)B(O)O; Gly(cPr) = N[C@H](C(=O)O)C1CC1

Tests used:
[1] = tested on: C+ E. faecalis (FA2-2 (pAM714), ATCC 29212); assay: Solution-phase hemolysis assay with C+ E. faecalis and rabbit erythrocytes; assay type: cell-based, Enterococcus faecalis
Source text: To test this hypothesis, a solution-phase hemolysis assay was developed, and this assay was used to monitor the effect of 9 on the hemolytic activity of several strains of E. faecalis (Fig. 8A). The cytolysin BGC is part of conjugative plasmid pAD1[64]. E. faecalis FA2-2 (-pAD1) lacks pAD1 and E. faecalis FA2-2 (pAM9055) is defective in cylA[27],[64]. Consistent with previous findings, both strains were not hemolytic (Fig. 8A).
A Treatment of an inoculum (OD600 = 0.35) of washed E. faecalis cells with 100 μM inhibitor 9 ( + 9), in the presence of washed rabbit erythrocytes. The hemolytic activity decreased relative to untreated controls (− 9). In total, four biological replicates (n = 4) for each condition were performed. Error bars represent the standard deviation and are centered at the mean. B Assessment of the ability of inhibitor 9 to block the hemolytic activity of live E. faecalis over a range of inhibitor concentrations under conditions described for (A). […] Errors in the EC50 are the errors calculated during the non-linear concatenate fit. C LCMS analysis of the concentration of CylLS” extracted from overnight cultures of C+ E. faecalis ATCC 29212 treated with 9 or vehicle. CylLS” extract concentrations were determined by comparison to an internal standard of ^15N,^13C-labeled CylLS”. Four biological replicates were performed (n = 4). Errors bars are centered at the mean and represent the standard of deviation. […] Four biological replicates were performed (n = 4). Error bars are centered at the mean and represent the standard of deviation. Statistical significance was calculated using a two sample and two sided t test for (A) and (C) and a one sample one sided t test for (D). **P < 0.01, ***P < 0.001. Source data are provided as a Source Data file.
Rabbit erythrocytes (Hemostat) were washed with cold, sterile PBS and diluted in BHI to a concentration of 1% v/v. A 3 mL overnight culture of E. faecalis was centrifuged (4000 × g, 10 min) and the pellet was resuspended in 7 mL of BHI and the suspension was centrifuged (4000 × g, 10 min). The pellet was resuspended in BHI to achieve an OD600 of 1.4 and 50 µL of this suspension was added to a well containing 50 µL of inhibitor (400 µM). The inhibitor and the E. faecalis were incubated at room temperature for 10 min before adding 100 µL of 1% v/v rabbit erythrocytes in BHI. The inhibitor-free control well contained the same concentration of bacteria and rabbit erythrocytes. The sterile negative control and sterile positive control contained 100 µL of BHI and 100 µL of 1% v/v rabbit erythrocytes. […] The plate was then placed on ice and centrifuged at 1000 × g for 10 min to pellet all the remaining cellular material. The supernatant was diluted 10-fold in PBS and the absorbance at 415 nm was measured. For each condition, four wells were prepared and analyzed.

[2] = target: T1, His6-CylA-27-412 (Enterococcus faecalis, UniProt A0A2P6AWB8); assay: Co-operative pore formation assay (pyranine liposomes) measuring CylA-catalyzed cytolysin maturation; assay type: biochemical
T1 sequence (A0A2P6AWB8 27-412): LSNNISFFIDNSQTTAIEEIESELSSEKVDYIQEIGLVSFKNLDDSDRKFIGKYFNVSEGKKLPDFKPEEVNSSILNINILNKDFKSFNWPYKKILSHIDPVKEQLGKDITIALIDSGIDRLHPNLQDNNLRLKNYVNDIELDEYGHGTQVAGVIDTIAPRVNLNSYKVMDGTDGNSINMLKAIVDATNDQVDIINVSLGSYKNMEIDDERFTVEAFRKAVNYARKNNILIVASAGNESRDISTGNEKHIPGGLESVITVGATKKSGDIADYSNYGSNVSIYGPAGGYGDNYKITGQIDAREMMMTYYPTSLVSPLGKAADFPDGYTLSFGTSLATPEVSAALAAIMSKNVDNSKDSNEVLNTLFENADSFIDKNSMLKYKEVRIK
Source text: Cytolysin causes hemolysis and lyses a variety of eukaryotic cells[36],[37]. Additionally, CylA aggregates and is thought to associate primarily with the membrane of the producing cell[52],[53]. To mimic the maturation of cytolysin in vitro, an enzyme assay was designed that linked toxin production to the lysis of fluorescently labeled liposomes. […] In this way, pyranine fluorescence was correlated to toxin activation allowing for the determination of EC50 values (Fig. 4B, C).
Fig. 4 In vitro pore formation assay for determining inhibitor effectiveness. A A schematic of the assay showing how pore formation is used as an indicator of toxin maturation. […] Pore formation dissipates a pH gradient between the interior of the liposome and the surrounding buffer increasing pyranine fluorescence. […] The data points from two replicates are shown (n = 2). Source data are provided as a Source Data file.
Pyranine encapsulated liposomes were prepared as described elsewhere. […] To a well in a black 96-well plate (200 µL) was added 90 µL high pH buffer (5 mM MES, 5 mM Tricine, 5 mM NaCl, pH 7.4) containing CylA (4 nM final concentration). After adding inhibitor, the mixture was incubated at room temperature for 10 min then freshly prepared (no more than 2 days old) pyranine encapsulated DOPC liposomes were added such that the total DOPC concentration was 80 µM. […] The resulting curves were max-min normalized yielding the fraction of permeabilized liposomes. […] This experiment was performed in duplicate or triplicate for each inhibitor at each concentration.
Supplementary Figure 3. Measuring CylA-cat alyzed cytolysin maturation using a pyranine pore formation assay. Plots on the left side show the normalized pyranine emission intensity monitored […]
was added 30 min later. Each trace w as collected using a differ ent total co ncentration of inhibitor as indicated in the l egend. Traces are from a single representative tri al. On the right side, the fraction of liposomes permeabilized after 30 min was plotted as a function of total inhibitor concentration. The data were fit to a dose-response function using Origin 7 and the fit curve is depicted by the red line. Errors bars represent the standard of deviation bet ween two replicates (n = 2). Source d ata are pro vided as a Source Data file. […]

SMILES: CC(=O)NCC(=O)N[C@@H](CC(=O)O)C(=O)N[C@H](C(=O)N[C@@H](CCC(N)=O)C(=O)N[C@@H](C)C(=O)N[C@@H](CCC(=O)O)B(O)O)C1CC1 [Compound 9] (Ac-GD[Gly(cPr)]QA-boroGlu)
- hemolysis, absorbance at 415 nm (Figure 8A), replicates ([1]; ATCC29212 +9, 100 μM): 0.1606 and 0.1785 and 0.1723 and 0.2311
- hemolysis relative to untreated cells ([1]; C+ E. faecalis ATCC 29212, 100 μM, rabbit erythrocytes): significantly reduced
- hemolytic activity relative to untreated cells ([1]; E. faecalis FA2-2 (pAM714), 100 μM, rabbit erythrocytes): significantly reduced
- OD 415 nm (Figure 8B), trials 1 and 2 ([1]; log(concentration of Inhibitor 9 (uM)) 1): 0.3132 and 0.3077
- OD 415 nm (Figure 8B), trials 1 and 2 ([1]; log(concentration of Inhibitor 9 (uM)) 1.39794): 0.3207 and 0.274
- OD 415 nm (Figure 8B), trials 1 and 2 ([1]; log(concentration of Inhibitor 9 (uM)) 1.69897): 0.2734 and 0.2373
- OD 415 nm (Figure 8B), trials 1 and 2 ([1]; log(concentration of Inhibitor 9 (uM)) 1.87506): 0.2493 and 0.2138
- OD 415 nm (Figure 8B), trials 1 and 2 ([1]; log(concentration of Inhibitor 9 (uM)) 2): 0.2161 and 0.1917
- OD 415 nm (Figure 8B), trials 1 and 2 ([1]; log(concentration of Inhibitor 9 (uM)) 2.09691): 0.2085 and 0.1864
- OD 415 nm (Figure 8B), trials 1 and 2 ([1]; log(concentration of Inhibitor 9 (uM)) 2.17609): 0.1972 and 0.1808
- OD 415 nm (Figure 8B), trials 1 and 2 ([1]; log(concentration of Inhibitor 9 (uM)) 2.30103): 0.2237 and 0.2008
- hemolysis, absorbance at 415 nm (Figure 8A), replicates ([1]; pAM714 +9, 100 μM): 0.2309 and 0.2273 and 0.2512 and 0.1929
- more effective than compound 1 at inhibiting pore formation [2]: 2 fold
